{"source": "patent US9302999B2", "about": "“Substituted triazoles as herbicides” (E. I. DU PONT DE NEMOURS AND COMPANY, priority 2012, dated 2016)", "assay_type_in_all_cases": "in vivo", "key": {"[1]": {"tested_on": "nutsedge, yellow (yellow nutsedge, Cyperus esculentus)", "experiment": "Test C pre-/postemergence: nutsedge, yellow", "conditions": "Postemergence", "outline": "(§1)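 Preemergence on seeds in loam/sand, postemergence on 2–18 cm (1–4-leaf) plants in peat-based medium; compounds in non-phytotoxic solvent with surfactant. After 13–15 days in greenhouse, visual rating versus controls, 0 (no effect) to 100 (complete control).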"}, "[2]": {"tested_on": "foxtail, giant (giant foxtail, Setaria faberii)", "experiment": "Test C pre-/postemergence: foxtail, giant", "conditions": "Postemergence", "outline": "as §1"}, "soybean (Glycine max)": {"tested_on": "soybean (Glycine max)", "experiment": "Test C pre-/postemergence: soybean", "conditions": "Postemergence", "outline": "as §1"}, "corn (Zea mays)": {"tested_on": "corn (Zea mays)", "experiment": "Test A pre-/postemergence: corn", "conditions": "1000 g ai/ha", "outline": "(§2)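 Soil medium was loam blended with sand; treatments pre- and postemergence were applied concurrently, postemergence at one- to two-leaf stage. Approximately ten days in greenhouse preceded visual comparison with untreated controls, scored 0 (no effect) to 100 (complete control).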"}, "[3]": {"tested_on": "ryegrass, Italian (Italian ryegrass, Lolium multiflorum)", "experiment": "Test C pre-/postemergence: ryegrass, Italian", "conditions": "Postemergence", "source_text": "(§3) Seeds of plant species selected from blackgrass (Alopecurus myosuroides), bromegrass, downy (downy bromegrass, Bromus tectorum), foxtail, green (green foxtail, Setaria viridis), ryegrass, Italian (Italian ryegrass, Lolium multiflorum), winter wheat (Triticum aestivum), wild oat (Avena fatua), galium (catchweed bedstraw, Galium aparine), bermudagrass (Cynodon dactylon), surinam grass (Brachiaria decumbens), cocklebur (common cocklebur, Xanthium strumarium), corn (Zea mays), large crabgrass (Digitaria sanguinalis), woolly cupgrass (Eriochloa villosa), foxtail, giant (giant foxtail, Setaria faberii), goosegrass (Eleusine indica), johnsongrass (Sorghum halepense), kochia (Kochia scoparia), lambsquarters (Chenopodium album), morningglory (Ipomoea coccinea), nightshade (eastern black nightshade, Solanum ptycanthum), nutsedge, yellow (yellow nutsedge, Cyperus esculentus), pigweed (Amaranthus retroflexus), ragweed (common ragweed, Ambrosia elation), soybean (Glycine max), common (oilseed) sunflower (Helianthus annuus), Russian thistle (Salsola kali) and velvetleaf (Abutilon theophrasti) were planted into a blend of loam soil and sand and treated preemergence with test chemicals formulated in a non-phytotoxic solvent mixture which included a surfactant.\n(§4) At the same time, plants selected from these crop and weed species and also barley (winter barley, Hordeum vulgare), canarygrass (Phalaris minor), chickweed (common chickweed, Stellaria media) windgrass (Apera spica-venti) and deadnettle (henbit deadnettle, Lamium amplexicaule) were planted in pots containing Redi-Earth® planting medium (Scotts Company, 14111 Scottslawn Road, Marysville, Ohio 43041) comprising spaghnum peat moss, vermiculite, wetting agent and starter nutrients and treated with postemergence applications of test chemicals formulated in the same manner. Plants ranged in height from 2 to 18 cm (1- to 4-leaf stage) for postemergence treatments.\n(§5) Treated plants and controls were maintained in a greenhouse for 13 to 15 days, after which time all species were compared to controls and visually evaluated. Plant response ratings, summarized in Table C, are based on a scale of 0 to 100 where 0 is no effect and 100 is complete control. A dash (-) response means no test result."}, "[4]": {"tested_on": "crabgrass, large (large crabgrass, Digitaria sanguinalis)", "experiment": "Test A pre-/postemergence: crabgrass, large", "conditions": "1000 g ai/ha", "outline": "as §2"}, "[5]": {"tested_on": "pigweed (Amaranthus retroflexus)", "experiment": "Test A pre-/postemergence: pigweed", "conditions": "1000 g ai/ha", "outline": "as §2"}, "[6]": {"tested_on": "wheat (Triticum aestivum)", "experiment": "Test A pre-/postemergence: wheat", "conditions": "1000 g ai/ha", "outline": "as §2"}, "[7]": {"tested_on": "barnyardgrass (Echinochloa crus-galli)", "experiment": "Test A pre-/postemergence: barnyardgrass", "conditions": "1000 g ai/ha", "outline": "as §2"}, "[8]": {"tested_on": "winter wheat (Triticum aestivum)", "experiment": "Test C pre-/postemergence: winter wheat", "conditions": "Postemergence", "source_text": "as §3, §4, §5"}, "[9]": {"tested_on": "lambsquarters (Chenopodium album)", "experiment": "Test C pre-/postemergence: lambsquarters", "conditions": "Postemergence", "source_text": "as §3, §4, §5"}, "[10]": {"conditions": "16 g ai/ha, scale 0 to 100, 0 no effect, 100 complete control"}, "[11]": {"conditions": "31 g ai/ha, scale 0 to 100 (0 no effect, 100 complete control)"}, "[12]": {"conditions": "62 g ai/ha, scale 0 to 100 (0 no effect, 100 complete control)"}, "[13]": {"conditions": "125 g ai/ha, scale 0 to 100, 0 no effect, 100 complete control"}, "[14]": {"conditions": "Postemergence, visual rating on 0 to 100 scale (0 no effect, 100 complete control), approximately ten days"}, "[15]": {"conditions": "Preemergence, 0 to 100 scale, 0 is no effect, 100 is complete control"}}}
{"smiles": "Cc1nn(-c2ccc(C(F)(F)F)cc2)nc1Cc1cccc(C(F)(F)F)c1", "note": "[Compound 124]", "values": [{"measurement": "Plant response rating, Nutsedge, Yellow", "setting": "[1]; [10]", "value": 0}, {"measurement": "Plant response rating, Nutsedge, Yellow", "setting": "[1]; [11]", "value": 0}, {"measurement": "Plant response rating, Nutsedge, Yellow", "setting": "[1]; [12]", "value": 0}, {"measurement": "Plant response rating, Nutsedge, Yellow", "setting": "[1]; [13]", "value": 0}, {"measurement": "Plant response rating, Foxtail, Giant", "setting": "[2]; [10]", "value": 15}, {"measurement": "Plant response rating, Foxtail, Giant", "setting": "[2]; [11]", "value": 15}, {"measurement": "Plant response rating, Foxtail, Giant", "setting": "[2]; [12]", "value": 25}, {"measurement": "Plant response rating, Foxtail, Giant", "setting": "[2]; [13]", "value": 45}, {"measurement": "Plant response rating, Soybean", "setting": "soybean (Glycine max); [10]", "value": 45}, {"measurement": "Plant response rating, Soybean", "setting": "soybean (Glycine max); [11]", "value": 55}, {"measurement": "Plant response rating, Soybean", "setting": "soybean (Glycine max); [12]", "value": 55}, {"measurement": "Plant response rating, Soybean", "setting": "soybean (Glycine max); [13]", "value": 60}, {"measurement": "Corn plant response rating", "setting": "corn (Zea mays); [14]", "value": 60}, {"measurement": "Corn plant response rating", "setting": "corn (Zea mays); [15]", "value": 10}, {"measurement": "Plant response rating, Ryegrass, Italian", "setting": "[3]; [10]", "value": 5}, {"measurement": "Plant response rating, Ryegrass, Italian", "setting": "[3]; [11]", "value": 15}, {"measurement": "Plant response rating, Ryegrass, Italian", "setting": "[3]; [12]", "value": 35}, {"measurement": "Plant response rating, Ryegrass, Italian", "setting": "[3]; [13]", "value": 65}, {"measurement": "Crabgrass, Large plant response rating", "setting": "[4]; [14]", "value": 90}, {"measurement": "Crabgrass, Large plant response rating", "setting": "[4]; [15]", "value": 100}, {"measurement": "Pigweed plant response rating", "setting": "[5]; [14]", "value": 100}, {"measurement": "Pigweed plant response rating", "setting": "[5]; [15]", "value": 100}, {"measurement": "Wheat plant response rating", "setting": "[6]; [14]", "value": 40}, {"measurement": "Wheat plant response rating", "setting": "[6]; [15]", "value": 0}, {"measurement": "Barnyardgrass plant response rating", "setting": "[7]; [14]", "value": 70}, {"measurement": "Barnyardgrass plant response rating", "setting": "[7]; [15]", "value": 90}, {"measurement": "Plant response rating, Wheat", "setting": "[8]; [10]", "value": 5}, {"measurement": "Plant response rating, Wheat", "setting": "[8]; [11]", "value": 10}, {"measurement": "Plant response rating, Wheat", "setting": "[8]; [12]", "value": 15}, {"measurement": "Plant response rating, Wheat", "setting": "[8]; [13]", "value": 20}, {"measurement": "Plant response rating, Lambsquarters", "setting": "[9]; [10]", "value": 85}, {"measurement": "Plant response rating, Lambsquarters", "setting": "[9]; [11]", "value": 95}, {"measurement": "Plant response rating, Lambsquarters", "setting": "[9]; [12]", "value": 98}, {"measurement": "Plant response rating, Lambsquarters", "setting": "[9]; [13]", "value": 98}]}
